Measurements from patent publication US20170334899A1, “AMINO-SUBSTITUTED ISOTHIAZOLES” (Bayer Pharma Aktiengesellschaft, priority 2014, published 2017).

tested on: HeLa; experiment: Proliferation assay (crystal violet), HeLa; type: cell-based; conditions: HeLa cells; 4 days incubation; crystal violet staining; read-out: IC50 inhibition of proliferation, HeLa
Outline: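 Tumor cells seeded at 1000–5000 cells/well in medium with 10% FCS; after 24 h, compounds added at 0.001–10 μM (0.5% DMSO) for 4 days. Cells fixed with glutaraldehyde, stained with crystal violet, dye dissolved in acetic acid and read at 595 nm. IC50 from 4-parameter fit, normalized to zero-point plate and untreated cells.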

| SMILES | IC50 |
| --- | --- |
| Cc1nsc(Nc2cnc(C(F)(F)F)cn2)c1C(=O)Nc1ccc(F)c(OCC2CCCN(CC(F)F)C2)c1 (centres unmarked) [Example 334, N-(3-{[1-(2,2-difluoroethyl)piperidin-3-yl]methoxy}-4-fluorophenyl)-3-methyl-5-{[5-(trifluoromethyl)pyrazin-2-yl]amino}-1,2-thiazole-4-carboxamide] | 370 nM |

same assay, conditions: Homo sapiens, HeLa, 96 h, HeLa cells; 4 days incubation; crystal violet staining; read-out: IC50 inhibition of proliferation, HeLa

| SMILES | IC50 |
| --- | --- |
| Cc1nsc(Nc2cnc(C(F)(F)F)cn2)c1C(=O)Nc1ccc(F)c(OC[C@H]2CCN(CCC(F)(F)F)C2)c1 [Example 399, N-(4-fluoro-3-{[(3S)-1-(3,3,3-trifluoropropyl)pyrrolidin-3-yl]methoxy}phenyl)-3-methyl-5-{[5-(trifluoromethyl)pyrazin-2-yl]amino}-1,2-thiazole-4-carboxamide] | 650 nM |
| Cc1nsc(Nc2cnc(C(F)(F)F)cn2)c1C(=O)Nc1ccc(O[C@@H]2CCN(CC(F)F)C2)nc1 [Example 379, N-(6-{[(3R)-1-(2,2-difluoroethyl)pyrrolidin-3-yl]oxy}pyridin-3-yl)-3-methyl-5-{[5-(trifluoromethyl)pyrazin-2-yl]amino}-1,2-thiazole-4-carboxamide] | 620 nM |
| Cc1nsc(Nc2cnc3ccccc3n2)c1C(=O)Nc1ccc(OC2CCCN(CC(F)F)C2)nc1 (centres unmarked) [Example 33, N-(6-{[1-(2,2-Difluoroethyl)piperidin-3-yl]oxy}pyridin-3-yl)-3-methyl-5-(quinoxalin-2-ylamino)-1,2-thiazole-4-carboxamide] | 2400 nM |
| Cc1nsc(Nc2cnc(C(F)(F)F)cn2)c1C(=O)Nc1ccc(F)c(OC[C@@H]2CCCN(CCC(F)(F)F)C2)c1 [Example 395, N-(4-fluoro-3-{[(3R)-1-(3,3,3-trifluoropropyl)piperidin-3-yl]methoxy}phenyl)-3-methyl-5-{[5-(trifluoromethyl)pyrazin-2-yl]amino}-1,2-thiazole-4-carboxamide] | 480 nM |
| Cc1nsc(Nc2cnc(C(F)(F)F)cn2)c1C(=O)Nc1ccc(O[C@@H]2CCN(CC(F)(F)F)C2)nc1 [Example 380, 3-methyl-N-(6-{[(3R)-1-(2,2,2-trifluoroethyl)pyrrolidin-3-yl]oxy}pyridin-3-yl)-5-{[5-(trifluoromethyl)pyrazin-2-yl]amino}-1,2-thiazole-4-carboxamide] | 550 nM |
| Cc1nsc(Nc2cnc(C(F)(F)F)cn2)c1C(=O)Nc1ccc(OC2CCN(C(CF)CF)CC2)nc1 [Example 324, N-(6-{[1-(1,3-difluoropropan-2-yl)piperidin-4-yl]oxy}pyridin-3-yl)-3-methyl-5-{[5-(trifluoromethyl)pyrazin-2-yl]amino}-1,2-thiazole-4-carboxamide] | 870 nM |
| Cc1nsc(Nc2cnc(C(F)(F)F)cn2)c1C(=O)Nc1ccc(N2CCN(CC(F)F)CC2)nc1 [Example 359, N-{6-[4-(2,2-difluoroethyl)piperazin-1-yl]pyridin-3-yl}-3-methyl-5-{[5-(trifluoromethyl)pyrazin-2-yl]amino}-1,2-thiazole-4-carboxamide] | 640 nM |
| Cc1nsc(Nc2cnc(C(F)(F)F)cn2)c1C(=O)Nc1ccc(OC2CCCN(C(CF)CF)C2)nc1 (centres unmarked) [Example 333, N-(6-{[1-(1,3-difluoropropan-2-yl)piperidin-3-yl]oxy}pyridin-3-yl)-3-methyl-5-{[5-(trifluoromethyl)pyrazin-2-yl]amino}-1,2-thiazole-4-carboxamide] | 1200 nM |
| Cc1nsc(Nc2cnc(C(F)(F)F)cn2)c1C(=O)Nc1ccc(F)c(OC[C@H]2CCN(CC(F)F)C2)c1 [Example 397, N-(3-{[(3S)-1-(2,2-difluoroethyl)pyrrolidin-3-yl]methoxy}-4-fluorophenyl)-3-methyl-5-{[5-(trifluoromethyl)pyrazin-2-yl]amino}-1,2-thiazole-4-carboxamide] | 830 nM |

Further lines, results first:

| IC50 | SMILES |
| --- | --- |
| 410 nM | CCN1CC[C@H](Oc2ccc(NC(=O)c3c(C)nsc3Nc3cnc(C(F)(F)F)cn3)cn2)[C@@H](F)C1 [Example 365, N-(6-{[(3S,4S)-1-ethyl-3-fluoropiperidin-4-yl]oxy}pyridin-3-yl)-3-methyl-5-{[5-(trifluoromethyl)pyrazin-2-yl]amino}-1,2-thiazole-4-carboxamide] |
| 380 nM | Cc1nsc(Nc2cnc(C(F)(F)F)cn2)c1C(=O)Nc1ccc(N2CCN(CCC(F)(F)F)CC2)nc1 [Example 361, 3-methyl-5-{[5-(trifluoromethyl)pyrazin-2-yl]amino}-N-{6-[4-(3,3,3-trifluoropropyl)piperazin-1-yl]pyridin-3-yl}-1,2-thiazole-4-carboxamide] |
| 370 nM | Cc1nsc(Nc2cnc(C(F)(F)F)cn2)c1C(=O)Nc1ccc(F)c(OCC2CCCN(CC(F)(F)F)C2)c1 (centres unmarked) [Example 337, N-(4-fluoro-3-{[1-(2,2,2-trifluoroethyl)piperidin-3-yl]methoxy}phenyl)-3-methyl-5-{[5-(trifluoromethyl)pyrazin-2-yl]amino}-1,2-thiazole-4-carboxamide] |
| 350 nM | Cc1nsc(Nc2cnc(C(F)(F)F)cn2)c1C(=O)Nc1ccc(OCCN(C)CC(F)F)nc1 [Example 349, N-(6-{2-[(2,2-difluoroethyl)(methyl)amino]ethoxy}pyridin-3-yl)-3-methyl-5-{[5-(trifluoromethyl)pyrazin-2-yl]amino}-1,2-thiazole-4-carboxamide] |
| 350 nM | Cc1nsc(Nc2cnc(C(F)(F)F)cn2)c1C(=O)Nc1ccc(OC2CCCN(CCC(F)(F)F)C2)nc1 (centres unmarked) [Example 332, 3-methyl-5-{[5-(trifluoromethyl)pyrazin-2-yl]amino}-N-(6-{[1-(3,3,3-trifluoropropyl)piperidin-3-yl]oxy}pyridin-3-yl)-1,2-thiazole-4-carboxamide] |
| 340 nM | Cc1nsc(Nc2cnc(C(F)(F)F)cn2)c1C(=O)Nc1ccc(O[C@H]2CCN(CC(F)(F)F)C[C@@H]2F)nc1 [Example 363, N-(6-{[(3S,4S)-3-fluoro-1-(2,2,2-trifluoroethyl)piperidin-4-yl]oxy}pyridin-3-yl)-3-methyl-5-{[5-(trifluoromethyl)pyrazin-2-yl]amino}-1,2-thiazole-4-carboxamide] |
| 300 nM | Cc1nsc(Nc2cnc(C(F)(F)F)cn2)c1C(=O)Nc1ccc(OC[C@@H]2CCCN(CC(F)F)C2)nc1 [Example 375, N-(6-{[(3R)-1-(2,2-difluoroethyl)piperidin-3-yl]methoxy}pyridin-3-yl)-3-methyl-5-{[5-(trifluoromethyl)pyrazin-2-yl]amino}-1,2-thiazole-4-carboxamide] |
| 270 nM | Cc1nsc(Nc2cnc(C(F)(F)F)cn2)c1C(=O)Nc1ccc(OCC2CCN(CC(F)F)CC2)nc1 [Example 345, N-(6-{[1-(2,2-difluoroethyl)piperidin-4-yl]methoxy}pyridin-3-yl)-3-methyl-5-{[5-(trifluoromethyl)pyrazin-2-yl]amino}-1,2-thiazole-4-carboxamide] |
| 270 nM | Cc1nsc(Nc2cnc(C(F)(F)F)cn2)c1C(=O)Nc1ccc(OCC2CCN(CC(F)(F)F)CC2)nc1 [Example 346, 3-methyl-N-(6-{[1-(2,2,2-trifluoroethyl)piperidin-4-yl]methoxy}pyridin-3-yl)-5-{[5-(trifluoromethyl)pyrazin-2-yl]amino}-1,2-thiazole-4-carboxamide] |
| 260 nM | Cc1nsc(Nc2cnc(C(F)(F)F)cn2)c1C(=O)Nc1ccc(OC2CCCN(CC(F)(F)F)C2)nc1 (centres unmarked) [Example 331, 3-methyl-N-(6-{[1-(2,2,2-trifluoroethyl)piperidin-3-yl]oxy}pyridin-3-yl)-5-{[5-(trifluoromethyl)pyrazin-2-yl]amino}-1,2-thiazole-4-carboxamide] |
